# According to US20100249234A1, “METHODS OF REDUCING VIRULENCE IN BACTERIA” (UWM RESEARCH FOUNDATION, INC., priority 2007, published 2010):
# Tests used:
# Assay type in all cases: cell-based, Dickeya dadantii 3937 (Ech3937)
# [1] = test system: hrpA promoter; test: hrpA promoter activity, GFP reporter plasmid phrpA, flow cytometry (FACS); conditions: for expression of hrpA, GFP intensity (Mean Fluorescence Intensity), Ech3937 carrying phrpA: MM + 0.1 mM compound
# Experimental: FACS analysis of promoter activity of dspE, hrpA, hrpL, hrpN, and hrpS was carried out as described (Peng et al., 2006). Briefly, the wild-type Ech3937 and the mutant strains carrying the promoter reporter plasmid were grown on LB broth at 28° C. overnight and transferred to appropriate media. For FACS analysis, samples were collected by centrifugation, washed with 1× phosphate buffer saline (PBS) at 13,000 rpm for 1 min, and re-suspended in 1×PBS to ca 10^6 CFU/ml prior to being run in a FACS Calibur flow cytometer (BD Biosciences, CA). Three replicates were performed for each treatment.
# To identify potential compounds that repress activation of T3SS, analogs and isomers of TCA and intermediates of salicylic acid and phenypropanoid biosynthesis pathways in plants were further screened for their effect on Ech3937 hrpA expression by flow cytometry (Table 9). A green fluorescent protein (GFP) reporter plasmid phrpA (pProbe-AT derivative with PCR fragment containing hrpA promoter region) was constructed, resulting in a transcriptional fusion of hrpA promoter with GFP gene. Bacterial cells containing phrpA plasmid were grown in MM supplemented with 0.1 mM of each compound. GFP intensity, which is a measurement of hrpA promoter activity, was measured by flow cytometry.
# [2] = test system: hrpN promoter; test: hrpN promoter activity, GFP reporter plasmid phrpN, flow cytometry (FACS)
# [3] = test system: Ech3937; test: Growth of Ech3937 in MM supplemented with compound; conditions: 0.05, 0.1 and 0.2 mM in MM (FIGS. 2A, 2B)
# From the text: Phenolic compounds constitute an important class of organic substances produced by plants. The phenolic compound SA is a signaling molecule that plays a role in host defenses. OCA and TCA are the biosynthetic precursors of SA and are also reported to induce the expression of defense-related genes in plants. OCA, TCA, and SA were examined to elucidate their effects on the expression of T3SS genes. The expression of the T3SS gene hrpN was examined in MM and MM supplemented with OCA, TCA, and SA, at concentrations of 0.05, 0.1, and 0.2 mM, respectively. FIGS. 2A and 2B show the promoter activities of hrpN in Dickeya dadantii 3937 (Ech3937) grown in MM and MM supplemented with 0.05, 0.1, and 0.2 mM OCA, TCA, and SA at 12 h (FIG. 2A) and 24 h (FIG. 2B) post-inoculation. GFP intensity was determined on gated populations of bacterial cells by flow cytometry and analyzed with the Cell Quest software (BD Biosciences, San Jose, Calif.). The growth of Ech3937 in MM supplemented with different concentrations of OCA, TCA and SA was recorded. Compared with MM alone, the average GFP fluorescence intensity of bacterial cells of Ech3937 (phrpN) was increased approximately 4-fold when 0.05 mM of OCA and TCA were added to the medium (FIGS. 2A, 2B).
# The expression of the T3SS gene hrpA was further examined in MM and MM supplemented with PCA at concentrations of 0.001, 0.005, 0.01, 0.05 and 0.1 mM respectively. FIGS. 16A and 16B show the promoter activities of hrpA in Dickeya dadantii 3937 (Ech3937) grown in minimum medium (MM) and MM supplemented with different amount of p-coumaric acid (PCA) at 12 h (FIG. 16A) and 24 h (FIG. 16B) post-inoculation. GFP intensity was determined on gated populations of bacterial cells by flow cytometry and analyzed with the Cell Quest software (BD Biosciences, San Jose, Calif.). The growth of Ech3937 in MM supplemented with different concentrations of PCA was recorded. Compared with MM alone, the average GFP fluorescence intensity of bacterial cells of Ech3937 (phrpA) was reduced more than 4-fold when 0.05 and 0.1 mM of PCA were added to the medium (FIGS. 16A, 16B).
SMILES,"expression of hrpA, GFP intensity (Mean Fluorescence Intensity), Ech3937 carrying phrpA ([1]; 6 h (Table 9))","expression of hrpA, GFP intensity (Mean Fluorescence Intensity), Ech3937 carrying phrpA ([1]; 12 h (Table 9))","expression of hrpA, GFP intensity (Mean Fluorescence Intensity), Ech3937 carrying phrpA ([1]; 24 h (Table 9))",also measured
O=C(O)C=Cc1ccccc1Cl [2-Chlorocinnamic acid],25.7 ± 0.2,166.2 ± 17.8,319.8 ± 48.3,–
Cc1ccccc1C=CC(=O)O [2-Methylcinnamic acid],22.8 ± 0.6,157.2 ± 11.7,342.5 ± 16.6,–
O=C(O)CCc1ccccc1 [Hydrocinnamic acid],13.7 ± 1.0,200.3 ± 35.8,213.5 ± 18.9,–
O=C(O)[C@@H]1C[C@H]1c1ccccc1 (relative stereo) [trans-2-Phenylcyclopropane-1-carboxylic acid],7.2 ± 0.1,67.0 ± 18.4,84.0 ± 14.3,–
O=C(O)COc1ccccc1 [Phenoxyacetic acid],18.0 ± 3.1,222.7 ± 64.3,205.7 ± 11.8,–
COC(=O)/C=C/c1ccccc1 [Methyl trans-cinnamate],9.7 ± 0.1,135.8 ± 8.1,219.2 ± 14.5,–
"O=C(O)c1ccccc1O [SA, salicylic acid, reference compound]",–,–,–,"effect on GFP fluorescence intensity of Ech3937 (phrpN) compared with MM alone ([2]; 0.05, 0.1 and 0.2 mM in MM, 12 h and 24 h (FIGS. 2A, 2B)): did not result in increased GFP fluorescence intensity; GFP Intensity of Ech3937 (phrpN) ([2]; MM + 0.2 μM compound, 12 h): 53.7 ± 4.0; GFP Intensity of Ech3937 (phrpN) ([2]; MM + 0.2 μM compound, 24 h): 105 ± 28; GFP Intensity of Ech3937 (phrpN) ([2]; MM + 0.5 μM compound, 12 h): 49.5 ± 5.9; GFP Intensity of Ech3937 (phrpN) ([2]; MM + 0.5 μM compound, 24 h): 99.5 ± 18; GFP Intensity of Ech3937 (phrpN) ([2]; MM + 5 μM compound, 12 h): 49.9 ± 2.9; GFP Intensity of Ech3937 (phrpN) ([2]; MM + 5 μM compound, 24 h): 97.7 ± 9.0; GFP Intensity of Ech3937 (phrpN) ([2]; MM + 10 μM compound, 12 h): 52.0 ± 2.3; GFP Intensity of Ech3937 (phrpN) ([2]; MM + 10 μM compound, 24 h): 104 ± 3.1; bacterial growth of Ech3937 in supplemented MM [3]: No reduction of bacterial growth"
O=C(O)/C=C/c1c[nH]c2ccccc12 [trans-3-indoleacrylic acid],7.9 ± 0.2,23.9 ± 1.3,121.0 ± 6.2,–
OCC=Cc1ccccc1 [Cinnamyl alcohol],6.3 ± 0.1,27.8 ± 5.0,53.8 ± 2.9,effect on expression of hrpA (screen result) ([1]; MM + 0.1 mM compound (Table 9)): inhibitors of the expression of hrpA
O=C(O)/C=C/c1cccnc1 [trans-3-(3-Pyridyl)acrylic acid],13.1 ± 0.4,184.9 ± 35.6,204.0 ± 16.8,–
O=C(O)/C=C/c1cccc(O)c1 [m-Coumaric acid],12.1 ± 0.0,133.0 ± 38.2,203.3 ± 9.6,–
